According to US20080113938A1, “ACCELERATOR FOR MINERAL ABSORPTION AND USE THEREOF” (KABUSHIKI KAISHA HAYASHIBARA SEIBUTSU KAGAKU KENKYUJO, priority 2003, published 2008):
Marks after values point to notes of the source that are not given here.

System: absorption of calcium, magnesium, phosphorus and iron in alimentary canal
Assay: Mineral amounts and absorption percentages in alimentary canal contents and excrement of rats
Assay type: in vivo, Wister rats
Description: Forty of Wister rats weighing 110 to 120 g (five-weeks aged male, commercialized by Charles River Japan Inc., Yokohama, Japan) were bred with a feed containing ingredients (%) shown in Table 1 for one week in order to be familiarized. The familiarized rats were randomly divided into four groups with ten rats each. Each group was experimentally bred for eight weeks with either a feed without cyclic tetrasaccharide shown in Table 1 (hereinafter, it is called as “basic feed”), or another feed of basic feed supplemented with 1%, 2% or 5% on a dry solid basis, of cyclic tetrasaccharide in a crystalline anhydrous powder form with a purity of 99.5%, prepared in the following Example A-3. These basic feed and three kinds of feeds with cyclic tetrasaccharide were prepared to contain 44.75% of the total amount of cyclic tetrasaccharide and corn starch in each feed. From one week before the end of the breeding test, in order to determine the metabolism of calcium, magnesium, iron, sodium, potassium and phosphorus (hereinafter, may be called “minerals” in all), rats in the all groups were fed with the four types of feeds supplemented with 0.5% of chromium oxide as a non-absorbed marker for the minerals. The rats were bred at 25° C. in a manner of freely allowing to take feeds and water under a condition of 12 hours regular interval between of light and shade. After completion of experimental breeding, all rats were individually weighed to calculate the average of weight and further calculate the rate of increased weight for each group.
Two days before the end of the breeding test, rats were placed into a gauge for measuring metabolism to collect their excrement in two days. The resulting excrement was subjected to the measurement of the contents of cyclic tetrasaccharide, each mineral, and chromium. After the breeding test, the rats were anatomized in an anesthetized condition to take out their alimentary canals including jejunum, intestinum ileum, appendix and colon/rectum. After the resulting alimentary canals were weighed, their contents were also weighed and subjected to the measurement of the amount of cyclic tetrasaccharide, minerals and chromium. The rats, which had been taken out their alimentary canals, were dislocated at their cervical vertebrae and taken out their femurs from right legs. The resulting femurs were subjected to the measurement of the amount of ashes, calcium, magnesium and phosphorus. The following(s) explain the methods of quantitative analysis of cyclic tetrasaccharide and the methods of measurement of minerals and chromium.
Two grams of a feed was preciously weighed in a porcelain crucible, heated to carbonize, and heated at 600° C. to incinerate. After weighed, the resulting test samples were admixed with hydrochloric acid in a precious analysis grade (concentration of 20%, commercialized by Wako Pure Chemicals, Co., Ltd., Osaka, Japan) to give a final concentration of 1%. They were subjected to atomic absorption spectrometry (“Zeeman5100™”, commercialized by PerkinElmer); in the case of measurement of chromium, they were subjected to a flameless type one. In the case of measurement of phosphorus, they were subjected to usual molybdenum blue absorptiometry. On the other hand, 0.1 g of each of the contents of jejunum, intestinum ileum, appendix, colon/rectum, and excrement was subjected to wet-type incineration to prepare test samples similarly as in the above case of feed, and the test samples were quantified. The right femurs taken out from the anatomized rats were dried at 105° C. for 15 hours and measured as a dry weight. The resulting dried femurs were precisely weighed in a porcelain crucible, and incinerated similarly as in the case of the feed. The resultants were weighed and quantified for calcium, magnesium and phosphorus.

[1] = feed supplemented with 1% cyclic tetrasaccharide
[2] = feed supplemented with 2% cyclic tetrasaccharide
[3] = feed supplemented with 5% cyclic tetrasaccharide

OC[C@H]1O[C@@H]2OC[C@H]3O[C@H](O[C@@H]4[C@@H](O)[C@@H](OC[C@H]5O[C@H](O[C@H]([C@H]2O)[C@@H]1O)[C@H](O)[C@@H](O)[C@@H]5O)O[C@H](CO)[C@H]4O)[C@H](O)[C@@H](O)[C@@H]3O [cyclic tetrasaccharide, cyclo{>6)-α-D-glucopyranosyl-(1>3)-α-D-glucopyranosyl-(1>6)-α-D-glucopyranosyl-(1>3)-α-D-glucopyranosyl-(1>}]
absorption rates of calcium, magnesium, phosphorus and iron in intestinum ileum and lower alimentary canal (against basic feed, 1%, 2%, 5% feeds): significantly increased in a dose-dependent manner
Absorption percentage of calcium, appendix [1]: (83) %
Absorption percentage of calcium, colon/rectum [1]: (86) %
Absorption percentage of calcium, excrement [1]: (88) %
Absorption percentage of calcium, intestinum ileum [1]: (79) %
Absorption percentage of iron, appendix [1]: (74) %
Absorption percentage of iron, colon/rectum [1]: (80) %
Absorption percentage of iron, excrement [1]: (85) %
Absorption percentage of iron, intestinum ileum [1]: (67) %
Absorption percentage of magnesium, appendix [1]: (84) %
Absorption percentage of magnesium, colon/rectum [1]: (86) %
Absorption percentage of magnesium, excrement [1]: (88) %
Absorption percentage of magnesium, intestinum ileum [1]: (80) %
Absorption percentage of phosphorus, appendix [1]: (88) %
Absorption percentage of phosphorus, colon/rectum [1]: (92) %
Absorption percentage of phosphorus, excrement [1]: (95) %
Absorption percentage of phosphorus, intestinum ileum [1]: (84) %
Amount of Phosphorus, content of appendix [1]: 5.39 * mg/g
Amount of Phosphorus, content of colon/rectum [1]: 5.18 * mg/g
Amount of Phosphorus, content of intestinum ileum [1]: 3.45 * mg/g
Amount of Phosphorus, excrement [1]: 17.74 * mg/g
Amount of calcium, content of appendix [1]: 10.56 * mg/g
Amount of calcium, content of colon/rectum [1]: 9.83 * mg/g
Amount of calcium, content of intestinum ileum [1]: 6.02 * mg/g
Amount of calcium, excrement [1]: 54.29 * mg/g
Amount of iron, content of appendix [1]: 0.16 * mg/g
Amount of iron, content of colon/rectum [1]: 0.14 * mg/g
Amount of iron, content of intestinum ileum [1]: 0.10 * mg/g
Amount of iron, excrement [1]: 0.71 * mg/g
Amount of magnesium, content of appendix [1]: 2.24 * mg/g
Amount of magnesium, content of colon/rectum [1]: 2.17 * mg/g
Amount of magnesium, content of intestinum ileum [1]: 1.30 * mg/g
Amount of magnesium, excrement [1]: 12.06 * mg/g
Absorption percentage of calcium, appendix [2]: (88) %
Absorption percentage of calcium, colon/rectum [2]: (90) %
Absorption percentage of calcium, excrement [2]: (92) %
Absorption percentage of calcium, intestinum ileum [2]: (84) %
Absorption percentage of iron, appendix [2]: (77) %
Absorption percentage of iron, colon/rectum [2]: (83) %
Absorption percentage of iron, excrement [2]: (88) %
Absorption percentage of iron, intestinum ileum [2]: (67) %
Absorption percentage of magnesium, appendix [2]: (86) %
Absorption percentage of magnesium, colon/rectum [2]: (88) %
Absorption percentage of magnesium, excrement [2]: (90) %
Absorption percentage of magnesium, intestinum ileum [2]: (80) %
Absorption percentage of phosphorus, appendix [2]: (92) %
Absorption percentage of phosphorus, colon/rectum [2]: (94) %
Absorption percentage of phosphorus, excrement [2]: (97) %
Absorption percentage of phosphorus, intestinum ileum [2]: (87) %
Amount of Phosphorus, content of appendix [2]: 5.35 * mg/g
Amount of Phosphorus, content of colon/rectum [2]: 4.10 * mg/g
Amount of Phosphorus, content of intestinum ileum [2]: 4.17 * mg/g
Amount of Phosphorus, excrement [2]: 10.27 * mg/g
Amount of calcium, content of appendix [2]: 8.98 * mg/g
Amount of calcium, content of colon/rectum [2]: 7.45 * mg/g
Amount of calcium, content of intestinum ileum [2]: 5.61 * mg/g
Amount of calcium, excrement [2]: 28.62 * mg/g
Amount of iron, content of appendix [2]: 0.18 * mg/g
Amount of iron, content of colon/rectum [2]: 0.14 * mg/g
Amount of iron, content of intestinum ileum [2]: 0.12 * mg/g
Amount of iron, excrement [2]: 0.49 * mg/g
Amount of magnesium, content of appendix [2]: 2.40 * mg/g
Amount of magnesium, content of colon/rectum [2]: 2.09 * mg/g
Amount of magnesium, content of intestinum ileum [2]: 1.61 * mg/g
Amount of magnesium, excrement [2]: 9.21 * mg/g
Absorption percentage of calcium, appendix [3]: (93) %
Absorption percentage of calcium, colon/rectum [3]: (94) %
Absorption percentage of calcium, excrement [3]: (94) %
Absorption percentage of calcium, intestinum ileum [3]: (89) %
Absorption percentage of iron, appendix [3]: (78) %
Absorption percentage of iron, colon/rectum [3]: (84) %
Absorption percentage of iron, excrement [3]: (89) %
Absorption percentage of iron, intestinum ileum [3]: (69) %
Absorption percentage of magnesium, appendix [3]: (88) %
Absorption percentage of magnesium, colon/rectum [3]: (91) %
Absorption percentage of magnesium, excrement [3]: (93) %
Absorption percentage of magnesium, intestinum ileum [3]: (84) %
Absorption percentage of phosphorus, appendix [3]: (93) %
Absorption percentage of phosphorus, colon/rectum [3]: (94) %
Absorption percentage of phosphorus, excrement [3]: (97) %
Absorption percentage of phosphorus, intestinum ileum [3]: (87) %
Amount of Phosphorus, content of appendix [3]: 3.43 * mg/g
Amount of Phosphorus, content of colon/rectum [3]: 3.06 * mg/g
Amount of Phosphorus, content of intestinum ileum [3]: 2.84 * mg/g
Amount of Phosphorus, excrement [3]: 8.98 * mg/g
Amount of calcium, content of appendix [3]: 4.99 * mg/g
Amount of calcium, content of colon/rectum [3]: 5.00 * mg/g
Amount of calcium, content of intestinum ileum [3]: 3.48 * mg/g
Amount of calcium, excrement [3]: 26.47 * mg/g
Amount of iron, content of appendix [3]: 0.19 * mg/g
Amount of iron, content of colon/rectum [3]: 0.13 * mg/g
Amount of iron, content of intestinum ileum [3]: 0.10 * mg/g
Amount of iron, excrement [3]: 0.66 * mg/g
Amount of magnesium, content of appendix [3]: 2.03 * mg/g
Amount of magnesium, content of colon/rectum [3]: 1.55 * mg/g
Amount of magnesium, content of intestinum ileum [3]: 1.04 * mg/g
Amount of magnesium, excrement [3]: 8.37 * mg/g
